Tested on: MV-4-11 cells
Experiment: Gene expression microarray analysis (Affymetrix PrimeView) and GSEA
Assay type: cell-based, human
Parameters: RFU PODN (11730768_x_at) / Fold change /veh PODN (11730768_x_at) / RFU LINC00158 (11744669_a_at) / Fold change /veh LINC00158 (11744669_a_at) / RFU DUSP10 (11751237_a_at) / Fold change /veh DUSP10 (11751237_a_at) / RFU ID3 (11757404_x_at) / Fold change /veh ID3 (11757404_x_at) / RFU PLEKHG5 (11737974_s_at) / Fold change /veh PLEKHG5 (11737974_s_at) / RFU LRRC4B (11730491_at) / Fold change /veh LRRC4B (11730491_at) / RFU GIMAP4 (11747438_a_at) / Fold change /veh GIMAP4 (11747438_a_at) / RFU KRT8 (11758183_x_at) / Fold change /veh KRT8 (11758183_x_at) / RFU CNN1 (11734310_a_at) / Fold change /veh CNN1 (11734310_a_at) / RFU VPS37D (11726825_at) / Fold change /veh VPS37D (11726825_at) / RFU C10orf10 (11716522_x_at) / Fold change /veh C10orf10 (11716522_x_at) / RFU KIR2DL2 /// KIR2DL4 /// KIR2DL5A /// KIR2DL5B /// KIR2DS1 /// KIR2DS2 /// KIR2DS3 /// KIR2DS4 /// KIR3DL3 /// KIR3DL3 /// KIR3DS1 (11738374_at) / Fold change /veh KIR2DL2 /// KIR2DL4 /// KIR2DL5A /// KIR2DL5B /// KIR2DS1 /// KIR2DS2 /// KIR2DS3 /// KIR2DS4 /// KIR3DL3 /// KIR3DL3 /// KIR3DS1 (11738374_at) / RFU C1QL1 (11718748_at) / Fold change /veh C1QL1 (11718748_at) / RFU TMPRSS4 (11747572_a_at) / Fold change /veh TMPRSS4 (11747572_a_at) / RFU HAMP (11756126_x_at) / Fold change /veh HAMP (11756126_x_at) / RFU RNFT2 (11725882_a_at) / Fold change /veh RNFT2 (11725882_a_at) / RFU NR4A2 (11747474_a_at) / Fold change /veh NR4A2 (11747474_a_at) / RFU ABCC12 (11746883_a_at) / Fold change /veh ABCC12 (11746883_a_at) / RFU TMEM136 (11760407_x_at) / Fold change /veh TMEM136 (11760407_x_at) / RFU CLDN22 /// WWC2 (11732394_at) / Fold change /veh CLDN22 /// WWC2 (11732394_at) / RFU HLA-DPB1 (11760878_x_at) / Fold change /veh HLA-DPB1 (11760878_x_at) / RFU SPINT1 (11716480_a_at) / Fold change /veh SPINT1 (11716480_a_at) / RFU GAP43 (11754022_s_at) / Fold change /veh GAP43 (11754022_s_at) / RFU A4GNT (11735810_at) / Fold change /veh A4GNT (11735810_at) / RFU PRB3 (11715151_x_at) / Fold change /veh PRB3 (11715151_x_at) / RFU TUBB4B (11761932_at) / Fold change /veh TUBB4B (11761932_at) / RFU CAPN14 (11732068_a_at) / Fold change /veh CAPN14 (11732068_a_at) / RFU TMCC2 (11721928_a_at) / Fold change /veh TMCC2 (11721928_a_at) / RFU IRGQ (11745062_a_at) / Fold change /veh IRGQ (11745062_a_at) / RFU FAM174B (11720279_a_at) / Fold change /veh FAM174B (11720279_a_at) / RFU TMPRSS4 (11748680_a_at) / Fold change /veh TMPRSS4 (11748680_a_at) / RFU FAM212B (11763350_a_at) / Fold change /veh FAM212B (11763350_a_at) / RFU PLEKHG5 (11743358_a_at) / Fold change /veh PLEKHG5 (11743358_a_at) / RFU ZSCAN30 (11745921_a_at) / Fold change /veh ZSCAN30 (11745921_a_at) / RFU CMKLR1 (11741424_a_at) / Fold change /veh CMKLR1 (11741424_a_at) / RFU LOC101060620 /// MAPK8IP1 (11723275_at) / Fold change /veh LOC101060620 /// MAPK8IP1 (11723275_at) / RFU SPTSSB (11747773_x_at) / Fold change /veh SPTSSB (11747773_x_at) / RFU PRSS12 (11739890_at) / Fold change /veh PRSS12 (11739890_at) / RFU BIN1 (11741810_x_at) / Fold change /veh BIN1 (11741810_x_at) / RFU WNT11 (11732464_a_at) / Fold change /veh WNT11 (11732464_a_at) / RFU C10orf10 (11716521_a_at) / Fold change /veh C10orf10 (11716521_a_at) / RFU C5orf56 (11738089_at) / Fold change /veh C5orf56 (11738089_at) / RFU CYB561 (11721691_x_at) / Fold change /veh CYB561 (11721691_x_at) / RFU ANKRD19P (11752326_a_at) / Fold change /veh ANKRD19P (11752326_a_at) / RFU OR2T12 /// OR2T33 /// OR2T8 (11738714_s_at) / Fold change /veh OR2T12 /// OR2T33 /// OR2T8 (11738714_s_at) / RFU VCAN (11748164_a_at) / Fold change /veh VCAN (11748164_a_at) / RFU JSRP1 (11732532_at) / Fold change /veh JSRP1 (11732532_at) / RFU KRTAP10-11 (11738290_x_at) / Fold change /veh KRTAP10-11 (11738290_x_at) / RFU MYO3A (11730013_a_at) / Fold change /veh MYO3A (11730013_a_at) / RFU EBF3 (11725865_a_at) / Fold change /veh EBF3 (11725865_a_at) / RFU CAMK2N1 (11719241_x_at) / Fold change /veh CAMK2N1 (11719241_x_at) / RFU C5orf56 (11738088_a_at) / Fold change /veh C5orf56 (11738088_a_at) / RFU OLFML3 (11715873_a_at) / Fold change /veh OLFML3 (11715873_a_at) / RFU LOC100653217 /// NTM (11731650_a_at) / Fold change /veh LOC100653217 /// NTM (11731650_a_at) / RFU MAPK11 (11762145_a_at) / Fold change /veh MAPK11 (11762145_a_at) / RFU FIZ1 (11724087_x_at) / Fold change /veh FIZ1 (11724087_x_at) / RFU OASL (11726364_x_at) / Fold change /veh OASL (11726364_x_at) / RFU SOX15 (11748057_x_at) / Fold change /veh SOX15 (11748057_x_at) / RFU CD79A (11719716_a_at) / Fold change /veh CD79A (11719716_a_at) / RFU HIST1H1D (11736915_at) / Fold change /veh HIST1H1D (11736915_at) / RFU CASKIN2 (11723855_a_at) / Fold change /veh CASKIN2 (11723855_a_at) / RFU LOC730098 (11760151_x_at) / Fold change /veh LOC730098 (11760151_x_at) / RFU OR4N2 (11742367_at) / Fold change /veh OR4N2 (11742367_at) / RFU PRRT2 (11749266_a_at) / Fold change /veh PRRT2 (11749266_a_at) / RFU SNX32 (11753110_a_at) / Fold change /veh SNX32 (11753110_a_at) / RFU CDHR5 (11726645_a_at) / Fold change /veh CDHR5 (11726645_a_at) / RFU RCAN1 (11760418_a_at) / Fold change /veh RCAN1 (11760418_a_at) / RFU FAM167A (11723789_a_at) / Fold change /veh FAM167A (11723789_a_at) / RFU FAM26E (11764081_at) / Fold change /veh FAM26E (11764081_at) / RFU ISYNA1 (11749810_s_at) / Fold change /veh ISYNA1 (11749810_s_at) / RFU ACY1 (11761880_at) / Fold change /veh ACY1 (11761880_at) / RFU 11764098_at / Fold change /veh 11764098_at / RFU SAMD14 (11745864_x_at) / Fold change /veh SAMD14 (11745864_x_at) / RFU NPB (11741838_a_at) / Fold change /veh NPB (11741838_a_at) / RFU TMPRSS6 (11731388_a_at) / Fold change /veh TMPRSS6 (11731388_a_at) / RFU KRTAP10-2 (11738614_at) / Fold change /veh KRTAP10-2 (11738614_at) / RFU ARHGAP8 /// PRR5-ARHGAP8 (11727945_x_at) / Fold change /veh ARHGAP8 /// PRR5-ARHGAP8 (11727945_x_at) / RFU KRTAP5-7 /// NADSYN1 (11734609_at) / Fold change /veh KRTAP5-7 /// NADSYN1 (11734609_at) / RFU RASL12 (11751679_a_at) / Fold change /veh RASL12 (11751679_a_at) / RFU CDKN2B (11736163_a_at) / Fold change /veh CDKN2B (11736163_a_at) / RFU PRF1 (11729649_at) / Fold change /veh PRF1 (11729649_at) / RFU, ZNF638 /// ZNF638-IT1 / Fold change vs veh, ZNF638 /// ZNF638-IT1 / RFU, PANK3 / Fold change vs veh, PANK3 / RFU, SH3YL1 / Fold change vs veh, SH3YL1 / RFU, ZEB2 / Fold change vs veh, ZEB2 / RFU, NRIP1 / Fold change vs veh, NRIP1 / RFU, PTTG1IP / Fold change vs veh, PTTG1IP / RFU, CAPN2 / Fold change vs veh, CAPN2 / RFU, MED14 / Fold change vs veh, MED14 / RFU, SNORA58 / Fold change vs veh, SNORA58 / RFU, C1orf63 / Fold change vs veh, C1orf63 / RFU, LRRFIP1 / Fold change vs veh, LRRFIP1 / RFU, NDUFAF7 / Fold change vs veh, NDUFAF7 / RFU, SLC12A2 / Fold change vs veh, SLC12A2 / RFU, IBTK / Fold change vs veh, IBTK / RFU, ESF1 / Fold change vs veh, ESF1 / Fold change vs veh, TMEM50B / RFU, TAOK1 / Fold change vs veh, TAOK1 / RFU, ACBD3 / Fold change vs veh, ACBD3 / RFU, TMA16 / Fold change vs veh, TMA16 / RFU, RWDD3 / Fold change vs veh, RWDD3 / RFU, BCAT1 / Fold change vs veh, BCAT1 / RFU, EDEM3 / Fold change vs veh, EDEM3 / RFU, TMEM33 / Fold change vs veh, TMEM33 / RFU, WDR75 / Fold change vs veh, WDR75 / RFU, AHCTF1 / Fold change vs veh, AHCTF1 / RFU, TFRC / Fold change vs veh, TFRC / RFU, ZDHHC17 / Fold change vs veh, ZDHHC17 / RFU, NOM1 / Fold change vs veh, NOM1 / RFU, ARL8B / Fold change vs veh, ARL8B / RFU, ZBTB11 / Fold change vs veh, ZBTB11 / RFU, TAMM41 / Fold change vs veh, TAMM41 / RFU, KIAA1704 /// LOC100996395 / Fold change vs veh, KIAA1704 /// LOC100996395 / RFU, ING1 / Fold change vs veh, ING1 / RFU, TRMT61B / Fold change vs veh, TRMT61B / RFU, FUBP3 / Fold change vs veh, FUBP3 / RFU, TP53 / Fold change vs veh, TP53 / RFU, TNKS2 / Fold change vs veh, TNKS2 / RFU, ZFP14 / Fold change vs veh, ZFP14 / RFU, ACTR2 / Fold change vs veh, ACTR2 / RFU, PPP3R1 / Fold change vs veh, PPP3R1 / RFU, PIK3R1 / Fold change vs veh, PIK3R1 / RFU, HNRNPA1 / Fold change vs veh, HNRNPA1 / RFU, RNF170 / Fold change vs veh, RNF170 / RFU, ZNF28 / Fold change vs veh, ZNF28 / RFU, RNGTT / Fold change vs veh, RNGTT / RFU, OGT / Fold change vs veh, OGT / RFU, BRD1 / Fold change vs veh, BRD1 / RFU, MARS / Fold change vs veh, MARS / RFU, ZNF655 / Fold change vs veh, ZNF655 / RFU, FAHD1 / Fold change vs veh, FAHD1 / RFU, BDP1 / Fold change vs veh, BDP1 / RFU, LRRCC1 / Fold change vs veh, LRRCC1 / RFU, ARID1A / Fold change vs veh, ARID1A / RFU, ZNF146 / Fold change vs veh, ZNF146 / RFU, ZNF330 / Fold change vs veh, ZNF330 / RFU, GPN3 / Fold change vs veh, GPN3 / RFU, C9orf123 / Fold change vs veh, C9orf123 / RFU, N4BP2L2 / Fold change vs veh, N4BP2L2 / RFU, ARFIP1 / Fold change vs veh, ARFIP1 / RFU, FAM179B / Fold change vs veh, FAM179B / RFU, BCL10 / Fold change vs veh, BCL10 / RFU, UHRF1BP1L / Fold change vs veh, UHRF1BP1L / RFU, BET1 / Fold change vs veh, BET1 / RFU, CNOT2 / Fold change vs veh, CNOT2 / RFU, ZNF268 / Fold change vs veh, ZNF268 / Fold change vs veh, ZNF507 / RFU, DGCR2 / Fold change vs veh, DGCR2 / RFU, WDSUB1 / Fold change vs veh, WDSUB1 / Fold change vs veh, HSP90B1 /// MIR3652 / RFU, ADSS / Fold change vs veh, ADSS / RFU, GK / Fold change vs veh, GK / RFU, ZNF148 / Fold change vs veh, ZNF148 / RFU, TAF9 / Fold change vs veh, TAF9 / RFU, SLC1A5 / Fold change vs veh, SLC1A5 / RFU, SLMO2 / Fold change vs veh, SLMO2 / RFU, ABCC4 / Fold change vs veh, ABCC4 / RFU, LOC101060439 /// RAP1B / Fold change vs veh, LOC101060439 /// RAP1B / RFU, RFX7 / Fold change vs veh, RFX7 / RFU, GTPBP10 / Fold change vs veh, GTPBP10 / RFU, CNEP1R1 / Fold change vs veh, CNEP1R1 / RFU, BIVM-ERCC5 /// ERCC5 / Fold change vs veh, BIVM-ERCC5 /// ERCC5 / RFU, ILF3 / Fold change vs veh, ILF3 / RFU 11762660_at / Fold change /veh 11762660_at / RFU VCAN (11757783_s_at) / Fold change /veh VCAN (11757783_s_at) / RFU DDX43 (11728927_at) / Fold change /veh DDX43 (11728927_at) / RFU KRT8 (11758188_x_at) / Fold change /veh KRT8 (11758188_x_at) / RFU NKD1 (11759106_at) / Fold change /veh NKD1 (11759106_at) / RFU SRD5A1 (11742802_a_at) / Fold change /veh SRD5A1 (11742802_a_at) / RFU TPSAB1 /// TPSB2 (11721975_s_at) / Fold change /veh TPSAB1 /// TPSB2 (11721975_s_at) / RFU GSTM3 (11746129_a_at) / Fold change /veh GSTM3 (11746129_a_at) / RFU IL23R (11737362_x_at) / Fold change /veh IL23R (11737362_x_at) / RFU TMEM51 (11727254_a_at) / Fold change /veh TMEM51 (11727254_a_at) / RFU PIWIL2 (11732686_x_at) / Fold change /veh PIWIL2 (11732686_x_at) / RFU ORM1 (11744905_x_at) / Fold change /veh ORM1 (11744905_x_at) / RFU CCDC152 (11743942_at) / Fold change /veh CCDC152 (11743942_at) / RFU ECM1 (11717891_a_at) / Fold change /veh ECM1 (11717891_a_at) / RFU IL23R (11748794_a_at) / Fold change /veh IL23R (11748794_a_at) / RFU TNFAIP8L3 (11732012_x_at) / Fold change /veh TNFAIP8L3 (11732012_x_at) / RFU MBOAT4 (11741988_at) / Fold change /veh MBOAT4 (11741988_at) / RFU 11764193_at / Fold change /veh 11764193_at / RFU TMEM53 (11763286_at) / Fold change /veh TMEM53 (11763286_at) / RFU MAGEB2 (11727129_at) / Fold change /veh MAGEB2 (11727129_at) / RFU TMEM200A (11744735_a_at) / Fold change /veh TMEM200A (11744735_a_at) / RFU CCDC152 (11751479_a_at) / Fold change /veh CCDC152 (11751479_a_at) / RFU FAM211A (11726209_a_at) / Fold change /veh FAM211A (11726209_a_at) / RFU RGS16 (11746705_a_at) / Fold change /veh RGS16 (11746705_a_at) / RFU VCAN (11755009_s_at) / Fold change /veh VCAN (11755009_s_at) / RFU RHOB (11743442_s_at) / Fold change /veh RHOB (11743442_s_at) / RFU RGS16 (11720943_a_at) / Fold change /veh RGS16 (11720943_a_at) / RFU RGS16 (11720944_at) / Fold change /veh RGS16 (11720944_at) / RFU, VPS4B / Fold change vs veh, VPS4B / RFU, CREB1 / Fold change vs veh, CREB1 / RFU, DNAJC13 / Fold change vs veh, DNAJC13 / RFU, GNAQ / Fold change vs veh, GNAQ / RFU, CDK5R1 / Fold change vs veh, CDK5R1 / RFU, ZRANB3 / Fold change vs veh, ZRANB3 / RFU, CUL4A / Fold change vs veh, CUL4A / RFU, CCNY / Fold change vs veh, CCNY / RFU, UFL1 / Fold change vs veh, UFL1 / RFU, COG3 / Fold change vs veh, COG3 / RFU, DIAPH2 / Fold change vs veh, DIAPH2 / RFU, SKA2 / Fold change vs veh, SKA2 / RFU, AFF3 / Fold change vs veh, AFF3 / RFU, LMF1 / Fold change vs veh, LMF1 / RFU, IPO11 / Fold change vs veh, IPO11 / RFU, DFFB / Fold change vs veh, DFFB / RFU, FOXP1 / Fold change vs veh, FOXP1 / RFU, CARD8 / Fold change vs veh, CARD8 / RFU, STRN3 / Fold change vs veh, STRN3 / RFU, ADK / Fold change vs veh, ADK / RFU, RASSF2 / Fold change vs veh, RASSF2 / RFU, WIPF1 / Fold change vs veh, WIPF1 / RFU, LARP1B / Fold change vs veh, LARP1B / RFU, RASA1 / Fold change vs veh, RASA1 / RFU, RB1 / Fold change vs veh, RB1 / RFU, PPFIA1 / Fold change vs veh, PPFIA1 / RFU, MAT2A / Fold change vs veh, MAT2A / RFU, CCT5 / Fold change vs veh, CCT5 / RFU, WDR92 / Fold change vs veh, WDR92 / RFU, CUX1 / Fold change vs veh, CUX1 / RFU, TTC7A / Fold change vs veh, TTC7A / RFU, TMEM135 / Fold change vs veh, TMEM135 / RFU, DEPTOR / Fold change vs veh, DEPTOR / RFU, CPM / Fold change vs veh, CPM / RFU, DNAJB6 / Fold change vs veh, DNAJB6 / RFU, CACNA2D3 / Fold change vs veh, CACNA2D3 / RFU, DTX4 / Fold change vs veh, DTX4 / RFU, TFCP2 / Fold change vs veh, TFCP2 / RFU, GMCL1 /// GMCL1P1 / Fold change vs veh, GMCL1 /// GMCL1P1 / RFU, AEBP2 / Fold change vs veh, AEBP2 / RFU, SNHG1 /// SNORD22 /// SNORD25 /// SNORD26 /// SNORD27 /// SNORD28 /// SNORD29 /// SNORD31 / Fold change vs veh, SNHG1 /// SNORD22 /// SNORD25 /// SNORD26 /// SNORD27 /// SNORD28 /// SNORD29 /// SNORD31 / Fold change (Aza/veh), C12orf56 (ProbeSet 11735607_a_at) / Fold change (ACY-1035/veh), C12orf56 (ProbeSet 11735607_a_at) / Fold change (Aza/veh), FGFR1OP (ProbeSet 11751329_s_at) / Fold change (ACY-1035/veh), FGFR1OP (ProbeSet 11751329_s_at) / Fold change (Aza/veh), VPS36 (ProbeSet 11739960_a_at) / Fold change (ACY-1035/veh), VPS36 (ProbeSet 11739960_a_at) / RFU SYPL1 (11715823_x_at) / Fold change /veh SYPL1 (11715823_x_at) / RFU IGFBP7 (11715501_s_at) / Fold change /veh IGFBP7 (11715501_s_at) / RFU REEP3 (11722064_at) / Fold change /veh REEP3 (11722064_at) / RFU IGLL1 (11728026_x_at) / Fold change /veh IGLL1 (11728026_x_at): dose or concentration left out as unconfirmed
Settings: ProbeSet 11745260_x_at; LIST B

Nc1ccc(-c2cccs2)cc1NC(=O)c1ccc2c(c1)cc(C1CC1)n2CCN1CCOCC1 [ACY-1035]
Fold change vs veh, SLC12A2: 0.87

From PMC5218480 (PLoS ONE, 2017)
